One assay concerns Aspc1. The experiment in a line: Combination screen PDAC cell lines (CellTiter-Glo). The class given is cell-based. The conditions noted are these: for % max. inhibition (mono): first figure of mono/combo; for IC50: agent alone, 3 days, read-out: IC50 monotherapy. The protocol: (§1) A panel of CRC and PDAC cell lines was assessed and combination partners of potential clinical relevance for the respective tumor indications were used for evaluation of combination effects (CRC: irinotecan, oxaliplatin, 5-FU, MDM2 inhibitor (RG7388), Bcl-2 inhibitor (ABT199); PDAC: Abraxane, Paclitaxel, Gemcitabine, Doxorubicin, MDM2i (RG7388), Bc12i (ABT199), Bortezomib, Cyclopamine, PARP inhibitor (PJ34)).
(§2) Cells were seeded (numbers vary depending on the cell line) in black 96-well microplate with clear, flat bottom and incubated overnight at 37° C. and 5% CO2. After checking the adherence/confluence of cells, the medium was removed and 100 μl of fresh medium containing the corresponding compound was added to each well. A sequential dilution series (1:4) of 8 concentrations per compound (n=3) were used. Corresponding DMSO concentration and media alone were used as controls.
(§3) After incubation for 3 days at 37° C. and 5% CO2, 100 μl per well CellTiter-Glo reagent (Promega) was added to the plate. Luminescence was measured after 30 minutes agitation at room temperature. IC50-values were calculated with XL-Fit software. Each experiment with one compound was repeated at least twice.
(§4) Cells were seeded (numbers vary depending on the cell line) in black 96-well microplate with clear, flat bottom and incubated overnight at 37° C. and 5% CO2. After checking the adherence/confluence of cells, the medium was removed and 100 μl of fresh medium containing the corresponding compound or combination was added to each well.
(§5) A sequential 1:3 dilution series of 9 concentrations of Drozitumab/anti-human-Fc was done on a 96-well PP-V-bottom microplate (n=6). […] 25 μl/well of the Drozitumab/anti-human-Fc series were then transferred to the cells.
(§6) After incubation for 3 days at 37° C. and 5% CO2 100 μl per well CellTiter-Glo reagent (Promega) were given to the plates. Luminescence was measured after 30 minutes agitation at room temperature.
(§7) For each concentration of Drozitumab/anti-human-Fc and Drozitumab/anti-human-Fc+compound triplicates were done on the same plate and each experiment was repeated at least twice.

The test system of the next assay is Bxpc3. The experiment in a line: Combination screen PDAC cell lines (CellTiter-Glo). Format: cell-based. The note with it: for IC50: agent alone, 3 days, read-out: IC50 monotherapy. The method, then: as §1, §2, §3, §4, §5, §6, §7
A further assay relates to Capan2. Kind of assay: Combination screen PDAC cell lines (CellTiter-Glo). Format: cell-based. The conditions noted are these: for % max. inhibition (mono): first figure of mono/combo. The protocol:
as §1, §2, §3, §4, §5, §6, §7

Another assay has as its system Panc1. Kind of assay: Combination screen PDAC cell lines (CellTiter-Glo). The class given is cell-based. The note with it: for IC50: 3 days; for % max. inhibition (mono): first figure of mono/combo. The method, then: as §1, §2, §3, §4, §5, §6, §7
For a further assay, the system named is HT29. The experiment in a line: Combination screen CRC cell lines (CellTiter-Glo). The class given is cell-based. The note with it: for IC50: 3 days; for % max. inhibition (mono): first figure of mono/combo; for Fold change IC50 (DR5 ab mono vs combo) / % max. inhibition (combo): n.s. = not significant; for % max. inhibition (combo): second figure of mono/combo. The protocol: as §1, §2, §3, §4, §5, §6, §7

The next assay concerns SW480. Kind of assay: Combination screen CRC cell lines (CellTiter-Glo). The conditions noted are these: for % max. inhibition (mono): first figure of mono/combo; for % max. inhibition (combo): second figure of mono/combo; for IC50: 3 days. The class given is cell-based. The method, then: as §1, §2, §3, §4, §5, §6, §7
The subject of another assay is HCT116. Kind of assay: Combination screen CRC cell lines (CellTiter-Glo). The note with it: for IC50: 3 days; for % max. inhibition (mono): first figure of mono/combo; for % max. inhibition (combo): second figure of mono/combo. The class given is cell-based, human. The method, then:
as §1, §2, §3, §4, §5, §6, §7

Setting [1] is: Aspc1, second figure of mono/combo, n.s. = not significant.
The mark [2] stands for this setting: Bxpc3, first figure of mono/combo.
Where [3] appears, read: Bxpc3, second figure of mono/combo, n.s. = not significant.
The mark [4] stands for this setting: Homo sapiens, BXPC-3, 72 h, Bxpc3.
[5] abbreviates: Capan2, second figure of mono/combo, n.s. = not significant.
[6] abbreviates: Homo sapiens, PANC-1, 72 h, Panc1, DR5 ab + Fc titrated in combination with 1x IC50 of the named compound, read-out: IC50 Combo.
[7] abbreviates: Homo sapiens, PANC-1, 72 h, Panc1, agent alone, read-out: IC50 monotherapy.
[8] abbreviates: Panc1, second figure of mono/combo, n.s. = not significant.
Where [9] appears, read: DR5 ab + Fc titrated in combination with 1x IC50 of the named compound, read-out: IC50 combo.
Where [10] appears, read: agent alone, read-out: IC50 monotherapy.
The mark [11] stands for this setting: Homo sapiens, HT-29, 72 h, agent alone, read-out: IC50 monotherapy.

Like-named read-outs stand apart in the source and are kept apart here.

On to `Nc1ccn([C@@H]2O[C@H](CO)[C@@H](O)C2(F)F)c(=O)n1` [Gemcitabine, 4-amino-1-(2-deoxy-2,2-difluoro-β-D-erythro-pentofuranosyl)pyrimidin-2(1H)-on], for which the “% max. inhibition (mono)” value is given as 25% in the assay on Aspc1 (Aspc1), 45% in the assay on Bxpc3 (setting [2]), 35% in the assay on Capan2 (Capan2) and 50% with Panc1 (Panc1). Moreover, the “Fold change IC50 (DR5 ab mono vs combo)” value was determined as 50 in the assay on Aspc1 (Aspc1, n.s. = not significant); 15 in the assay on Bxpc3 (Bxpc3, n.s. = not significant); 5 in the assay on Panc1 (Panc1, n.s. = not significant). Also, the “% max. inhibition (combo)” value with Aspc1 (setting [1]) amounted to 55%; in the assay with Bxpc3 (setting [3]), 80%; in the assay on Capan2 (setting [5]), 60%; in the assay with Panc1 (setting [8]) it was 75%. For the same molecule, the IC50 was found to be 2000 nM in the assay with Aspc1 (Homo sapiens, 72 h, Aspc1); 30 nM in the assay on Bxpc3 (setting [4]); 52.9 nM in the assay with Panc1 (setting [6]); 2000 nM with Panc1 (setting [7]).

Regarding `CC1=C2C[C@H]3[C@@H](CC=C4C[C@@H](O)CC[C@@]43C)[C@@H]2CC[C@]12O[C@@H]1C[C@H](C)CN[C@H]1[C@H]2C` [Cyclopamine, (3β,23R)-17,23-Epoxyveratraman-3-ol], the “% max. inhibition (combo)” value is recorded as “n.s” in the assay on Aspc1, 65/95% with Bxpc3, “n.s” in the assay with Capan2 and “n.s” in the assay with Panc1. Further, the “% max. inhibition (mono)” value in the assay with Bxpc3 is reported as 65/95%.

Regarding `O=C1[O][Pt]2([NH][C@@H]3CCCC[C@H]3[NH]2)[O]C1=O` [Oxaliplatin, [(1R,2R)-cyclohexane-1,2-diamine](ethanedioato-O,O′)platinum(II)], the IC50 in the assay on HT29 (setting [9]) amounted to 0.2 nM; in the assay on HT29 (setting [10]), 5000 nM; in the assay on HCT116 (setting [9]), 0.04 nM; in the assay on HCT116 (setting [10]), 5000 nM. For the same molecule, the “% max. inhibition (mono)” value with HT29 is listed as 30%; in the assay on SW480 it was 60%; in the assay with HCT116 it was 20%. In addition, the “Fold change IC50 (DR5 ab mono vs combo)” value is on record as 13 in the assay with HT29, “n.s” with SW480 (n.s. = not significant) and 4 in the assay with HCT116. Besides, the “% max. inhibition (combo)” value in the assay with HT29 is reported as 90%; with SW480, 80%; in the assay on HCT116, 90%.

Take `CN(C)CC(=O)Nc1ccc2[nH]c(=O)c3ccccc3c2c1.Cl` [PARPi (PJ34)]: in the assay with Aspc1 (Aspc1), the “% max. inhibition (mono)” value was determined as 10%. Also, the “Fold change IC50 (DR5 ab mono vs combo)” value with Aspc1 (Aspc1, n.s. = not significant) is on record as 17; with Bxpc3 (Bxpc3, n.s. = not significant), 10; with Panc1 (Panc1, n.s. = not significant), “n.s”. Also, the “% max. inhibition (combo)” value in the assay on Aspc1 (setting [1]) was 70%; in the assay with Bxpc3 (setting [3]), “n.s”; with Capan2 (setting [5]) it was “n.s”; in the assay with Panc1 (setting [8]), “n.s”.

Regarding `O=c1[nH]cc(F)c(=O)[nH]1` [5-FU, 5-Fluoro-1H,3H-pyrimidine-2,4-dione], the IC50 worked out at 2500 nM in the assay with HT29 (setting [11]); 0.002 nM in the assay with SW480 (Homo sapiens, 72 h, DR5 ab + Fc titrated in combination with 1x IC50 of the named compound, n.s. = not significant, read-out: IC50 combo); 2500 nM in the assay with HCT116 (Homo sapiens, HCT-116, 72 h, agent alone, read-out: IC50 monotherapy). For the same molecule, the entries for the “% max. inhibition (mono)” value in the assay on HT29, in the assay with SW480 and in the assay on HCT116 were 50%, 50% and 60%, respectively. For the same molecule, the “Fold change IC50 (DR5 ab mono vs combo)” value is given as 25 in the assay on HT29 and 70000 in the assay with SW480 (n.s. = not significant). Moreover, the “% max. inhibition (combo)” value in the assay with HT29 came to 85%; in the assay with SW480 it was 65%; in the assay on HCT116 it was 90%.

In the case of `CC(C)C[C@H](NC(=O)[C@H](Cc1ccccc1)NC(=O)c1cnccn1)B(O)O` [Bortezomib, [(1R)-3-methyl-1-[(2S)-3-phenyl-2-(pyrazin-2-ylformamido)propanamido]butyl]boronic acid], the “Fold change IC50 (DR5 ab mono vs combo)” value is given as “n.s” with Aspc1 (Aspc1, n.s. = not significant); 8 with Bxpc3 (Bxpc3, n.s. = not significant); “n.s” in the assay with Panc1 (Panc1, n.s. = not significant). The “% max. inhibition (combo)” value in the assay with Aspc1 (setting [1]) was “n.s”; in the assay with Bxpc3 (setting [3]) it was 100%; with Capan2 (setting [5]), 95%; in the assay with Panc1 (setting [8]), “n.s”. Moreover, the IC50 with Aspc1 (Homo sapiens, 72 h, Aspc1) came to 30 nM; in the assay with Bxpc3 (setting [4]), 10 nM; in the assay with Capan2 (Homo sapiens, Capan-2, 72 h, Capan2, agent alone, 3 days, read-out: IC50 monotherapy), 20 nM; in the assay on Panc1 (setting [7]), 8.5 nM. Moreover, the “% max. inhibition (mono)” value is listed as 60% in the assay with Bxpc3 (setting [2]) and 40% in the assay with Capan2 (Capan2).

With `CC(=O)O[C@H]1C(=O)[C@@]2(C)[C@H]([C@H](OC(=O)c3ccccc3)[C@]3(O)C[C@H](OC(=O)[C@H](O)[C@@H](NC(=O)c4ccccc4)c4ccccc4)C(C)=C1C3(C)C)[C@]1(OC(C)=O)CO[C@@H]1C[C@@H]2O` [Paclitaxel, 5β,20-Epoxy-1,2α,4,7β,10β,13α-hexahydroxytax-11-en-9-one 4,10-diacetate 2-benzoate 13-ester with (2R,3S)-N-benzoyl-3-phenylisoserine], the “% max. inhibition (mono)” value turned out to be 30% in the assay with Aspc1 (Aspc1), 80% with Bxpc3 (setting [2]), 50% in the assay with Capan2 (Capan2) and 50% in the assay with Panc1 (Panc1). In addition, the “Fold change IC50 (DR5 ab mono vs combo)” value in the assay with Aspc1 (Aspc1, n.s. = not significant) turned out to be 31; with Bxpc3 (Bxpc3, n.s. = not significant) it was 1; in the assay on Panc1 (Panc1, n.s. = not significant), 8733. Further, the “% max. inhibition (combo)” value with Aspc1 (setting [1]) is 75%; in the assay on Bxpc3 (setting [3]) it was 100%; with Capan2 (setting [5]), 80%; with Panc1 (setting [8]), 70%. Also, the IC50 in the assay on Bxpc3 (setting [4]) was 250 nM; with Panc1 (setting [6]), 0.03 nM; with Panc1 (setting [7]) it was 15 nM.

Consider “DR5 ab + Fc: DR5 antibody (drozitumab) + crosslinking via an anti-Fc antibody, surrogate for FAP crosslinking”, for which the IC50 in the assay with Aspc1 (Aspc1) was 5 nM; in the assay on Bxpc3 (Bxpc3), 3 nM; with Panc1 (Panc1, agent alone, read-out: IC50 monotherapy) it was 262 nM; in the assay on HT29 (setting [10]), 2.5 nM; in the assay on SW480 (setting [10]), 140 nM; with HCT116 (setting [10]), 0.15 nM.

On to `CCc1c2c(nc3ccc(OC(=O)N4CCC(N5CCCCC5)CC4)cc13)-c1cc3c(c(=O)n1C2)COC(=O)[C@]3(O)CC` [Irinotecan, (S)-4,11-diethyl-3,4,12,14-tetrahydro-4-hydroxy-3,14-dioxo1H-pyrano[3′,4′:6,7]-indolizino[1,2-b]quinolin-9-yl-[1,4′bipiperidine]-1′-carboxylate], for which, in the assay on HT29 (setting [11]), the IC50 was found to be 9000 nM. The “% max. inhibition (mono)” value in the assay with HT29 amounted to 40%; in the assay on SW480 it was 60%; in the assay on HCT116 it was 60%. In addition, the “Fold change IC50 (DR5 ab mono vs combo)” value with HT29 is 83; with SW480 (n.s. = not significant), “n.s”. In addition, the “% max. inhibition (combo)” value with HT29 amounted to 100%; in the assay on SW480, 95%; with HCT116, 95%.

These data come from patent US20180064808A1, “COMBINATION THERAPY OF BISPECIFIC ANTIBODIES SPECIFIC FOR FAP AND DR5 AND CHEMOTHERAPEUTIC AGENTS” (Hoffmann-La Roche Inc., priority 2014, published 2018).
